pIC50: −log10 of the molar value.

The results in this text go back to US8895550B2, “Triazolopyridine compounds as PIM kinase inhibitors” (Array BioPharma Inc., priority 2008, dated 2014).

Holding throughout (assay type): biochemical
The target of one experiment is PIM-1 (Homo sapiens, UniProt P11309). Briefly: Enzyme PIM-1 Assay (radiometric [33P]ATP incorporation into PIM2tide, filter plate). The following applies: 35 μM ATP, 7.5 μM PIM2tide, 0.25 nM PIM-1, 60 min at 22° C.; high dose 10 μM. How it is done:
(§1) The assay for the determination of PIM-1 activity is based on the incorporation of [^33P]PO4 from [γ-^33P]ATP into PIM2tide substrate and capture of the radiolabeled peptide onto a Whatman P81 (phosphocellulose) filter plate. The amount of radiolabeled product is then measured by liquid scintillation counting. The final buffer conditions were as follows: 20 mM K^+MOPS, pH 7.4, 10 mM MgCl2, 0.005% Tween-20, 1 mM DTT. Assay mixtures contained 35 μM [γ-^33P]ATP (20 μCi/mL), 7.5 μM PIM2tide and 0.25 nM PIM-1 in a total volume of 50 μL. Incubations were carried out for 60 min at 22° C. and quenched with 75 μL, of 200 mM H3PO4, filtered through a Whatman P81 plate and washed (1×200 μL and 5×100 μL) with 200 mM H3PO4. Fifty μL of liquid scintillation cocktail were then added per well, and the plate was counted for 30 s/well using a TopCount NXT.
(§2) Compounds were prepared at 50× the final concentration in DMSO by conducting 3-fold serial dilutions from a 500-μM intermediate dilution to give a 10-point dosing curve having a high dose of 10 μM. One-μL aliquots of these were then transferred to the assay mixtures above to give a final concentration of DMSO of 2%. A standard or reference compound was typically included on each assay plate to validate that plate. For each plate, percent of control (POC) values were calculated for each well. IC50's were estimated from the POC's using a standard 4-parameter logistic model. The IC50 is defined as the concentration of inhibitor at which the POC equals 50 for the fitted curve.

For experiment [1], the target named is T1, GST-tagged recombinant full-length human Pim-2 (Homo sapiens, UniProt Q9P1W9).
T1 construct: GST-tagged recombinant full-length human Pim-2; GST
Briefly: PIM-2 Assay (as Example A with GST-tagged recombinant full-length human Pim-2). Conditions: 4 μM ATP, 1.0 μM PIM2tide, 1.5 nM Pim-2; high dose 10 μM. The procedure:
as §1, §2
Assay was performed as described in Example A, using 4 μM [γ-^33P]ATP (20 μCi/mL), 1.0 μM PIM2tide and 1.5 nM GST-tagged recombinant full-length human Pim-2 in place of PIM-1.

The target of a further experiment is recombinant rat PIM-3 (Rattus norvegicus, UniProt O70444). As to the kind of experiment: PIM-3 Assay (as Example A with recombinant rat PIM-3). The following applies: 30 μM ATP, 3.75 μM PIM2tide, 0.5 nM PIM-3; high dose 10 μM. How it is done: as §1, §2
Assay was performed as described in Example A, using 30 μM [γ-^33P]ATP (20 μCi/mL), 3.75 μM PIM2tide and 0.5 nM recombinant rat PIM-3 in place of PIM-1.

Sequence of PIM-1 (P11309 whole entry, species assumed): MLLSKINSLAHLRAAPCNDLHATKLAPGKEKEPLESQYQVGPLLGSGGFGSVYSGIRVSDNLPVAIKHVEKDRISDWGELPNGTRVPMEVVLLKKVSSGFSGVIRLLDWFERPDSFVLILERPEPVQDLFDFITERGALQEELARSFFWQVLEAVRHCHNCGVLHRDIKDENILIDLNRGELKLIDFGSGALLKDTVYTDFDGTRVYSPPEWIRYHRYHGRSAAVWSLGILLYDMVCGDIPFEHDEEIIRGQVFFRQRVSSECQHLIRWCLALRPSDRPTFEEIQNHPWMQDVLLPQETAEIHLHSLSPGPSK
T1 sequence (Q9P1W9 whole entry): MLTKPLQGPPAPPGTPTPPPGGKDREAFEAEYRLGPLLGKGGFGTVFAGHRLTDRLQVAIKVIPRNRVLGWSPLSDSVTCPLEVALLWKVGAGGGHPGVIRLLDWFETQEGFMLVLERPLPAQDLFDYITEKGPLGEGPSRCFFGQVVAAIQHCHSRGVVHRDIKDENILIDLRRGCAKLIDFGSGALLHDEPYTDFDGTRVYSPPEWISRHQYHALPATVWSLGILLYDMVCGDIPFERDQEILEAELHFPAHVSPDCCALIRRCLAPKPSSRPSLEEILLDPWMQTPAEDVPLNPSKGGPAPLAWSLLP

Turning to `CC1(N)CCN(c2cccc3ccc(-c4nnc5ccccn45)nc23)CC1` [Example 26, 1-(2-([1,2,4]triazolopyridin-3-yl)quinolin-8-yl)-4-methylpiperidin-4-amine], the negative-log IC50 (pIC50) was 7.68 at PIM-1, 6.21 in experiment [1] and 7.21 on recombinant rat PIM-3.

Usually pIC50 stands for the IC50 on a negative log10 scale, so that one unit is a factor of ten.
